How the values were obtained:
Type in all cases: in vivo, human
[1] = tested on: adult patients with MDD assessed to be at imminent risk for suicide; assay: CGI-SS-R (SIBAT), Study 1 (Example 4); details: 24 hours post first dose; for CGI-SS-R change, Hodges-Lehmann Est. of Treatment Diff. (95% CI): Esk 84 mg + SOC vs placebo + SOC
Description: (§1) The SIBAT is a suicide assessment tool that captures suicidal ideation and behavior(s) as reported by patients and reviewed by clinicians permitting efficient collection and documentation of clinical impression of severity of suicidality and imminent and long-term suicide risk and treatment plans.
(§2) The CGI-SS-R rating is scored on a 7-point scale from 0 (normal, not at all suicidal) to 6 (among the most extremely suicidal patients) and will be based on the totality of information available to the clinician, including information from the SIBAT. The CGI-SS-R summarizes the clinician's overall impression of severity of suicidality and will be used to assess the key secondary endpoint in this study. This rating operates like numerous other CGI-severity scales that have been used in other psychiatric studies. These instruments have shown clinical validity and sensitivity to change.
(§3) Change in CGI-SS-R from baseline to 24 hours post first dose (Day 2). The CGI-SS-R, derived from the Suicidal Ideation and Behavior Assessment Tool (SIBAT) rating is scored on a 7-point scale from 0 (normal, not at all suicidal) to 6 (among the most extremely suicidal patients).

[2] = tested on: adult patients with MDD assessed to be at imminent risk for suicide; assay: CGI-SS-R (SIBAT), Study 2 (Example 5); details: 24 hours post first dose
Description: as §1, §2
as §3, with “Key secondary efficacy variable: Change” for “Change”

[3] = tested on: adult patients with MDD assessed to be at imminent risk for suicide; assay: Adverse events (TEAEs, SAEs), Study 2 (Example 5)
Protocol: The primary objective is to compare the efficacy of ESK+SOC to that of PBO+SOC in reducing the symptoms of MDD, including suicidal ideation, as measured by the change from baseline on the MADRS total score at 24 hours post-first dose.

[4] = tested on: adult patients with MDD assessed to be at imminent risk for suicide; assay: Treatment disposition, Study 2 (Example 5); details: Esk 84 mg + SOC, double-blind phase, all randomized
Protocol: A total of 273 subjects were screened across 50 sites in 12 countries throughout the study period. Of those, 230 subjects were randomized to 1 of 2 treatment groups in a 1:1 ratio (115 in esketamine 84 mg+SOC and 115 in placebo+SOC). Randomization was stratified by study center and by the physician's assessment of the subject's need of standard of care antidepressant treatment (i.e., antidepressant monotherapy or an antidepressant plus augmentation therapy); the standard of care was determined prior to randomization on Day 1. […] The mean age was 40.8 years, ranging from 18 to 64 years.

[5] = tested on: adult patients with MDD assessed to be at imminent risk for suicide; assay: MADRS subgroup analysis by prior suicide attempt, pooled Examples 4 and 5; details: 24 hours after the first dose
Protocol: FIG. 11 is a forest plot for the MADRS at 24 hours post first dose: subgroup analyses pooled analysis for Examples 4 and 5.
(§4) In certain aspects, the disclosure relates to methods for reducing symptoms of major depressive disorder, including suicidality, in a human patient assessed to be at imminent risk for suicide comprising the administration of esketamine in addition to standard of care treatment. As reflected in the reported data, for depressive symptoms, the treatment differences favored the administration of esketamine plus standard of care treatment over standard of care treatment alone. In addition, treatment differences between patients that previously attempted suicide (attempters) and those that had not (non-attempters) were also present (see, e.g., data reflected in FIGS. 9-17). […] Improvement in this population is of clinical relevance considering that prior suicide attempt has been identified as the single most important predictor/risk factor for suicide in subjects with MDD.

[6] = tested on: adult patients with MDD assessed to be at imminent risk for suicide; assay: CGI-SS-R subgroup analysis by prior suicide attempt, Examples 4 and 5; details: 24 hours after the first dose
Description: FIG. 17 is a forest plot for the prior suicide attempt sub-group analysis using CGI-SS-R for Examples 4 and 5.
as §4

[7] = esketamine 84 mg+SOC, double-blind phase
[8] = esketamine 84 mg+SOC, safety set

SMILES: CN[C@]1(c2ccccc2Cl)CCCCC1=O [esketamine, (S)-2-(2-chlorophenyl)-2-(methylamino)cyclohexanone]
- CGI-SS-R change, Hodges-Lehmann Est. of Treatment Diff. (95% CI) [1]: 0.0 (−1.00; 0.00)
- CGI-SS-R change, Hodges-Lehmann Est. of Treatment Diff. (95% CI) ([1]; listed as Esk): 0.0
- CGI-SS-R score, Day 2 (DB) LOCF, median ([1]; Esk 84 mg + SOC): 2.0
- CGI-SS-R score, change from baseline to Day 2 (LOCF), median (range) ([1]; Esk 84 mg + SOC): −1.0 (−6; 2)
- CGI-SS-R score, change from baseline to Day 2 (LOCF), median (range) ([1]; Esk 84 mg + SOC, listed as Esk): −1.0
- CGI-SS-R change, Hodges-Lehmann estimate (95% CI) of the difference vs placebo+SOC [2]: 0.0 (0.00; 0.00)
- CGI-SS-R, change from baseline to Day 2 (LOCF), median (range) ([2]; esketamine 84 mg+SOC): −1.0 (−6; 2)
- Deaths during the study [3]: no deaths
- Psychiatric SAEs related to suicidal ideation, suicide attempt, or worsening of depression, participants ([3]; ESK+SOC, 9-week follow-up phase): 9
- SAE depersonalization/derealization disorder, participants ([3]; ESK+SOC, double-blind phase): 1
- SAE suicidal ideation, participants ([3]; ESK+SOC, double-blind phase): 1
- SAEs: suicide attempts, number ([3]; ESK+SOC, double-blind phase): 3
- SAE acute stress disorder, participants ([3]; ESK+SOC, follow-up phase): 1
- SAE depression-related event, participants ([3]; ESK+SOC, follow-up phase): 1
- SAE hemothorax, participants ([3]; ESK+SOC, follow-up phase): 1
- SAEs: suicidal ideation-related events, number ([3]; ESK+SOC, follow-up phase): 3
- SAEs: suicide attempts, number ([3]; ESK+SOC, follow-up phase): 4
- Events in ESK+SOC participants considered related to study medication, number ([3]; ESK+SOC, kind of event not given): 17
- Psychiatric SAEs related to suicidal ideation, suicide attempt, or worsening of depression, frequency ([3]; double-blind phase): < 5%
- Subjects with at least one TEAE, % [3, 7]: 91.2%
- Subjects with serious TEAEs, % [3, 7]: 4.4%
- TEAE Dissociation, subjects % [3, 7]: 38.6%
- TEAE Dizziness, subjects % [3, 7]: 41.2%
- TEAE Nausea, subjects % [3, 7]: 33.3%
- TEAE dysgeusia, subjects % [3, 7]: 25.4%
- TEAE headache, subjects % [3, 7]: 21.9%
- TEAE paraesthesia, subjects % [3, 7]: 20.2%
- TEAE somnolence, subjects % [3, 7]: 22.8%
- Subjects with serious AEs, % ([3]; esketamine 84 mg+SOC, follow-up phase): 10.1%
- Study medication permanently stopped due to an adverse event, subjects % [3, 8]: 7.9%
- Study medication permanently stopped due to an adverse event, subjects n [3, 8]: 9
- Overall safety and tolerability (in words) ([3]; intranasal ESK+SOC): safe and tolerated
- Discontinuation due to adverse event, subjects % [4]: 7.8%
- Discontinuation due to adverse event, subjects n [4]: 9
- Estimated difference (95% CI) vs placebo+SOC in change in MADRS total score ([5]; subpopulation with prior suicide attempt (FIG. 11)): −4.81 (−7.26; −2.36)
- Estimated difference (95% CI) vs placebo+SOC in change in MADRS total score ([5]; subpopulation without prior suicide attempt (FIG. 11)): −2.32 (−5.54; 0.91)
- Odds ratio (95% CrI) for an improved CGI-SS-R score relative to placebo+SOC ([6]; subjects with history of prior suicide attempt (FIG. 17)): 2.09 (1.06; 4.23)
- Odds ratio (95% CrI) for an improved CGI-SS-R score relative to placebo+SOC ([6]; subpopulation without prior suicide attempt (FIG. 17)): 1.14 (0.46; 2.83)
